This is an account of results in ChEMBL document CHEMBL5131512, “Novel niclosamide-derived adjuvants elevating the efficacy of polymyxin B against MDR Pseudomonas aeruginosa DK2” (Eur J Med Chem, 2022).

For one assay, the system named is Pseudomonas aeruginosa. Nature of the assay: Antimicrobial activity against clinical isolate CF333-2007 Pseudomonas aeruginosa DK2 measured after 18 hrs in presence of polymyxin B by microbroth dilution assay. Type of assay: functional. In general terms: In broth dilution the organism is exposed to a series of concentrations in liquid medium.
Turning to `O=C(Nc1cc(Cl)ccc1O)c1ccc([N+](=O)[O-])cc1Cl`, the MIC was 16 µg/mL.

Regarding `O=C(Nc1ccc([N+](=O)[O-])cc1Cl)c1cc(Cl)ccc1O` [NICLOSAMIDE], the MIC was 2 µg/mL.

For the compound `O=C(Nc1ccc(O)cc1Cl)c1cc(Cl)ccc1O`, the MIC was 32 µg/mL.

In the case of `O=C(Nc1ccc([N+](=O)[O-])cc1Cl)c1cc(Cl)ccc1O[C@H]1O[C@H](CO)[C@H](O)[C@H](O)[C@H]1O`, the MIC was 32 µg/mL.

As for `O=C(Nc1ccc([N+](=O)[O-])cc1Cl)c1cccc(Br)c1O`, the MIC stood at 16 µg/mL.

On to `O=C(Nc1ccc([N+](=O)[O-])cc1Cl)c1ccc(F)cc1O`, for which the MIC turned out to be 16 µg/mL.

For the compound `O=C(Nc1ccc([N+](=O)[O-])cc1Cl)c1ccncc1`, the MIC is > 32 µg/mL.

As to `O=C(O)c1ccc(NC(=O)c2cc(Cl)ccc2O)c(Cl)c1`, the MIC is > 32 µg/mL.

For the compound `O=C(Nc1cccnc1)c1cc(Cl)ccc1O`, the MIC was > 32 µg/mL.

In the case of `O=C(Nc1ccc(S)cc1)c1cc(Cl)ccc1O`, the MIC was > 32 µg/mL.

Regarding `O=C(Nc1ccc([N+](=O)[O-])cc1Cl)c1ccc(O)cc1O`, the MIC is > 32 µg/mL.

As for `O=C(Nc1ccc([N+](=O)[O-])cc1Cl)c1cc(O)ccc1O`, the MIC was > 32 µg/mL.

For the compound `O=C(Nc1ccc([N+](=O)[O-])cc1Cl)c1ccccc1`, the minimum inhibitory concentration (MIC) is > 32 µg/mL.

For the compound `O=C(Nc1ccc([N+](=O)[O-])cc1Cl)c1cccc(Cl)c1`, the minimum inhibitory concentration (MIC) was > 32 µg/mL.

On to `O=C(Nc1ccc(O[C@H]2O[C@H](CO)[C@H](O)[C@H](O)[C@H]2O)cc1Cl)c1cc(Cl)ccc1O`, for which the MIC is > 32 µg/mL.

Regarding `O=C(Nc1ccc([N+](=O)[O-])cc1O)c1cc(Cl)ccc1O`, the MIC worked out at 4 µg/mL.

Regarding `O=C(Nc1ccc([N+](=O)[O-])cc1Cl)c1cccc(F)c1O`, the MIC came to 32 µg/mL.

`O=C(Oc1ccc([N+](=O)[O-])cc1Cl)c1cc(Cl)ccc1O`: the MIC amounted to 16 µg/mL.

For a further assay, the system named is Pseudomonas aeruginosa. Nature of the assay: Antimicrobial activity against clinical isolate CF333-2007 Pseudomonas aeruginosa DK2 assessed as polymyxin B MIC measured after 18 hrs by microbroth dilution assay. Type of assay: functional.
Turning to `O=C(Nc1cc(Cl)ccc1O)c1ccc([N+](=O)[O-])cc1Cl`, the MIC worked out at 4 µg/mL.

As for `O=C(Nc1ccc([N+](=O)[O-])cc1Cl)c1cc(Cl)ccc1O` [NICLOSAMIDE], the MIC came to 2 µg/mL.

In the case of `O=C(Nc1ccc(O)cc1Cl)c1cc(Cl)ccc1O`, the MIC is 4 µg/mL.

Consider `O=C(Nc1ccc([N+](=O)[O-])cc1Cl)c1cc(Cl)ccc1O[C@H]1O[C@H](CO)[C@H](O)[C@H](O)[C@H]1O`, for which the MIC was 16 µg/mL.

For `O=C(Nc1ccc([N+](=O)[O-])cc1Cl)c1cccc(Br)c1O`, the MIC was 1 µg/mL.

As for `O=C(Nc1ccc([N+](=O)[O-])cc1Cl)c1ccc(F)cc1O`, the MIC was 1 µg/mL.

For `O=C(Nc1ccc([N+](=O)[O-])cc1Cl)c1ccncc1`, the MIC was > 32 µg/mL.

Take `O=C(O)c1ccc(NC(=O)c2cc(Cl)ccc2O)c(Cl)c1`: the MIC was > 32 µg/mL.

On to `O=C(Nc1cccnc1)c1cc(Cl)ccc1O`, for which the MIC is > 32 µg/mL.

Regarding `O=C(Nc1ccc(S)cc1)c1cc(Cl)ccc1O`, the MIC was > 32 µg/mL.

As to `O=C(Nc1ccc([N+](=O)[O-])cc1Cl)c1ccc(O)cc1O`, the MIC was > 32 µg/mL.

In the case of `O=C(Nc1ccc([N+](=O)[O-])cc1Cl)c1cc(O)ccc1O`, the MIC is > 32 µg/mL.

With `O=C(Nc1ccc([N+](=O)[O-])cc1Cl)c1ccccc1`, the MIC is > 32 µg/mL.

In the case of `O=C(Nc1ccc([N+](=O)[O-])cc1Cl)c1cccc(Cl)c1`, the MIC was > 32 µg/mL.

Consider `O=C(Nc1ccc(O[C@H]2O[C@H](CO)[C@H](O)[C@H](O)[C@H]2O)cc1Cl)c1cc(Cl)ccc1O`, for which the MIC is > 32 µg/mL.

`O=C(Nc1ccc([N+](=O)[O-])cc1O)c1cc(Cl)ccc1O`: the minimal inhibitory concentration (MIC) came out at 4 µg/mL.

With `O=C(Nc1ccc([N+](=O)[O-])cc1Cl)c1cccc(F)c1O`, the MIC stood at 1 µg/mL.

In the case of `O=C(Oc1ccc([N+](=O)[O-])cc1Cl)c1cc(Cl)ccc1O`, the MIC was 8 µg/mL.

Another assay relates to Pseudomonas aeruginosa. Nature of the assay: Synergistic antibacterial activity against clinical isolate CF333-2007 Pseudomonas aeruginosa DK2 assessed as fractional inhibitory concentration index incubated for 18 hrs in presence of Polymyxin B. Format: functional.
Regarding `O=C(Nc1cc(Cl)ccc1O)c1ccc([N+](=O)[O-])cc1Cl`, the “fractional inhibitory concentration index (FICI)” value came to 0.031.

`O=C(Nc1ccc([N+](=O)[O-])cc1Cl)c1cc(Cl)ccc1O` [NICLOSAMIDE]: the “fractional inhibitory concentration index (FICI)” value was 0.01.

As for `O=C(Nc1ccc(O)cc1Cl)c1cc(Cl)ccc1O`, the “fractional inhibitory concentration index (FICI)” value is on record as 0.141.

`O=C(Nc1ccc([N+](=O)[O-])cc1Cl)c1cc(Cl)ccc1O[C@H]1O[C@H](CO)[C@H](O)[C@H](O)[C@H]1O`: the “fractional inhibitory concentration index (FICI)” value came out at 0.094.

On to `O=C(Nc1ccc([N+](=O)[O-])cc1Cl)c1cccc(Br)c1O`, for which the “fractional inhibitory concentration index (FICI)” value was found to be 0.254.

For the compound `O=C(Nc1ccc([N+](=O)[O-])cc1Cl)c1ccc(F)cc1O`, the “fractional inhibitory concentration index (FICI)” value is 0.066.

For the compound `O=C(Nc1ccc([N+](=O)[O-])cc1O)c1cc(Cl)ccc1O`, the “fractional inhibitory concentration index (FICI)” value is on record as 0.078.

For `O=C(Nc1ccc([N+](=O)[O-])cc1Cl)c1cccc(F)c1O`, the “fractional inhibitory concentration index (FICI)” value amounted to 0.129.

In the case of `O=C(Oc1ccc([N+](=O)[O-])cc1Cl)c1cc(Cl)ccc1O`, the “fractional inhibitory concentration index (FICI)” value came out at 0.141.

The test system of a further assay is Pseudomonas aeruginosa. Nature of the assay: Antimicrobial activity against clinical isolate CF333-2007 Pseudomonas aeruginosa DK2 measured after 18 hrs by microbroth dilution assay. Type of assay: functional.
Take `O=C(Nc1cc(Cl)ccc1O)c1ccc([N+](=O)[O-])cc1Cl`: the MIC is > 1020 µg/mL.

Turning to `O=C(Nc1ccc([N+](=O)[O-])cc1Cl)c1cc(Cl)ccc1O[C@H]1O[C@H](CO)[C@H](O)[C@H](O)[C@H]1O`, the MIC was > 1020 µg/mL.

Turning to `O=C(Nc1ccc([N+](=O)[O-])cc1Cl)c1ccncc1`, the MIC is > 1020 µg/mL.

With `O=C(O)c1ccc(NC(=O)c2cc(Cl)ccc2O)c(Cl)c1`, the MIC was > 1020 µg/mL.

Take `CC(=O)N1CCc2cc(NC(=O)c3cc(F)ccc3O)ccc21`: the MIC was > 1020 µg/mL.

In the case of `O=C(Nc1cccnc1)c1cc(Cl)ccc1O`, the MIC is > 1020 µg/mL.

With `O=C(Nc1ccc(S)cc1)c1cc(Cl)ccc1O`, the MIC was > 1020 µg/mL.

`O=C(Nc1ccc(O)cc1Cl)c1cc(F)ccc1O`: the MIC was > 1020 µg/mL.

As to `O=C(Nc1ccc2[nH]c(=O)sc2c1)c1cc(F)ccc1O`, the MIC is > 1020 µg/mL.

Take `O=C(Nc1ccc(S(=O)(=O)N2CCOCC2)cc1)c1cc(F)ccc1O`: the MIC is > 1020 µg/mL.

Turning to `O=C(Nc1ccc([N+](=O)[O-])cc1Cl)c1ccc(O)cc1O`, the MIC was > 1020 µg/mL.

On to `O=C(Nc1ccc([N+](=O)[O-])cc1Cl)c1cc(O)ccc1O`, for which the minimum inhibitory concentration (MIC) is > 1020 µg/mL.

Take `O=C(Nc1ccc([N+](=O)[O-])cc1Cl)c1ccccc1`: the MIC is > 1020 µg/mL.

As to `O=C(Nc1ccc([N+](=O)[O-])cc1Cl)c1cccc(Cl)c1`, the MIC is > 1020 µg/mL.

Consider `O=C(Nc1ccc(O[C@H]2O[C@H](CO)[C@H](O)[C@H](O)[C@H]2O)cc1Cl)c1cc(Cl)ccc1O`, for which the MIC is > 1020 µg/mL.

As to `O=C(Nc1ccc(N2CCOCC2=O)cc1)c1cc(F)ccc1O`, the MIC is > 1020 µg/mL.

For the compound `O=C(Nc1ccc(O)cc1Cl)c1ccc(Br)cc1O`, the minimal inhibitory concentration (MIC) is > 1020 µg/mL.

Broadly, the MIC is the lowest concentration that inhibits growth of the organism.
